Measured values reported in the CombiSolv-Exp solvation set (Vermeire and Green 2021).

Assay: solvent given as SMILES

CC(=O)c1ccccc1
Settings | solvation free energy, 298 K [kcal/mol]
in CCCCCC | -6.05
in CCCCCCCCCCCCCCCC | -6.04
in O | -4.58

O=C(O)c1cc([N+](=O)[O-])ccc1Cl
Settings | solvation free energy, 298 K [kcal/mol]
in C1CCOC1 | -13.6
in CC(C)(C)O | -13.1
in CC(C)CCO | -12.8
in CC(C)CO | -12.7
in CC(C)O | -13.1
in CC(C)OC(C)C | -12
in CCC(C)O | -12.9
in CCCC(C)O | -12.8
in CCCCCCCCCCO | -12.4
in CCCCCCCCO | -12.6
in CCCCCCCO | -12.6
in CCCCCCO | -12.6
in CCCCCO | -12.8
in CCCCO | -12.9
in CCCCOC(C)=O | -12.4
in CCCO | -13
in CCCOC(C)=O | -12.6
in CCO | -13.2
in CCOC(C)=O | -12.8
in CCOCC | -12.8
in COC(C)=O | -12.9
in O | -9.48

CC(=O)C1COCCOCCOCCOCCOc2ccccc2O1 (configuration not stated)
Settings | solvation free energy, 298 K [kcal/mol]
in Cc1cccc(C)c1 | -19.2
in O | -17.8

C=C1CCC23CC1C(C)(C)C2CCC3C (configuration not stated)
Settings | solvation free energy, 298 K [kcal/mol]
in O | 0.8

CC(C)OC=O
Settings | solvation free energy, 298 K [kcal/mol]
in O | -2.02

ClC1=C(Cl)C2(Cl)C3C4OC4C(Cl)C3C1(Cl)C2(Cl)Cl (configuration not stated)
Settings | solvation free energy, 298 K [kcal/mol]
in CCCCCCCCC=CCCCCCCCC(=O)OCC(COC(=O)CCCCCCCC=CCCCCCCCC)OC(=O)CCCCCCCC=CCCCCCCCC | -13
in CCCCCCCCO | -11.7

Clc1cc(Cl)c(-c2ccc(Cl)c(Cl)c2Cl)cc1Cl
Settings | solvation free energy, 298 K [kcal/mol]
in CCCCCCCCO | -13.2
in O | -3.34

C=CC=CC=C
Settings | solvation free energy, 298 K [kcal/mol]
in C=CCCCCCCCCCCCCCC | -3.78
in O | 0.2

CCCCCCOC(=O)c1ccccc1C(=O)OCCCCCC
Settings | solvation free energy, 298 K [kcal/mol]
in O | -6.78

CCC=CCCC=O
Settings | solvation free energy, 298 K [kcal/mol]
in O | -3.19

O=C(O)CCC(=O)O
Settings | solvation free energy, 298 K [kcal/mol]
in CC(C)O | -12.3
in CCCO | -12.2
in CCO | -12.6
in O | -12.6
in O=C1CCCCC1 | -11.7

COc1cccc(N)c1
Settings | solvation free energy, 298 K [kcal/mol]
in O | -7.29

CC(C)(Cl)Cl
Settings | solvation free energy, 298 K [kcal/mol]
in O | -0.43

FC(F)C(F)(F)F
Settings | solvation free energy, 298 K [kcal/mol]
in CCCCCCCC(=O)OCC(COC(=O)CCCCCCC)OC(=O)CCCCCCC | -0.79
in CCCCCCCCC | -0.39
in CCCCCCCCO | -0.57
in CN(C)C=O | -1.54
in O | 1.45

CC(C)SC(C)C
Settings | solvation free energy, 298 K [kcal/mol]
in O | -1.21

Cc1ccccc1C(C)C
Settings | solvation free energy, 298 K [kcal/mol]
in O | -0.82

C=C(C)C
Settings | solvation free energy, 298 K [kcal/mol]
in CC(C)(C)O | -2.03
in CC(C)=O | -2.37
in CC(C)CCO | -1.99
in CC(C)CO | -1.98
in CC(C)O | -1.98
in CCC(C)(C)O | -2.09
in CCC(C)CO | -1.98
in CCC(C)O | -1.99
in CCC(O)CC | -2.01
in CCCC(C)O | -2.01
in CCCCC | -2.49
in CCCCCC | -2.43
in CCCCCCC | -2.44
in CCCCCCCC | -2.41
in CCCCCCCCC | -2.39
in CCCCCCCCCC | -2.36
in CCCCCO | -2.01
in CCCCO | -2.17
in CCCO | -2.01
in CCOC(C)=O | -2.55
in CN1CCCC1=O | -1.8
in CN(C)C=O | -1.98
in Cc1ccc(C)cc1 | -2.32
in Cc1cccc(C)c1 | -2.33
in Cc1ccccc1C | -2.31
in ClC(Cl)(Cl)Cl | -2.44
in Ic1ccccc1 | -1.91
in N#Cc1ccccc1 | -1.97
in O | 1.17
in O=CN1CCOCC1 | -1.36
in c1ccccc1 | -2.32

Cc1cc(=O)n(-c2ccccc2)n1C
Settings | solvation free energy, 298 K [kcal/mol]
in O | -13.3

CCOC(=O)c1ccc(O)cc1
Settings | solvation free energy, 298 K [kcal/mol]
in O | -9.2

CCCCC(=O)CC(=O)CCCC
Settings | solvation free energy, 298 K [kcal/mol]
in O | -4.13

O=C(O)c1ccc(I)cc1
Settings | solvation free energy, 298 K [kcal/mol]
in CN(C)C=O | -14
in O | -7.96

CCC(C)(C)OC
Settings | solvation free energy, 298 K [kcal/mol]
in CC(=O)N(C)C | -3.92
in CC(C)(C)O | -4.22
in CC(C)CC(C)(C)C | -4.24
in CCCCCC | -4.47
in CCCCCCC | -4.24
in CCCCCCCCCC | -4.16
in CCCCCCCCO | -4.07
in CCCCN(C=O)CCCC | -4.11
in CCN1CCCC1=O | -3.85
in CCN(CC)C(C)=O | -4.04
in CCNC(C)=O | -3.86
in CCNC=O | -3.79
in CN1CCCCC1=O | -3.86
in CN(C)C=O | -3.78
in CNC(C)=O | -3.75
in CNC=O | -3.62
in CO | -4.26
in O | -1.77

Brc1ccc(Br)cc1
Settings | solvation free energy, 298 K [kcal/mol]
in CC(C)(C)O | -6.86
in CC(C)CCO | -7.01
in CC(C)CO | -6.92
in CCC(C)O | -6.94
in CCCC(C)O | -6.98
in CCCCCC | -7.25
in CCCCCCC | -7.55
in CCCCCCCCC=CCCCCCCCC(=O)OCC(COC(=O)CCCCCCCC=CCCCCCCCC)OC(=O)CCCCCCCC=CCCCCCCCC | -7.01
in CCCCCCCCO | -7.11
in CCCCOCCCC | -7.74
in CCOCC | -8.21
in COC(C)(C)C | -7.73
in ClC(Cl)(Cl)Cl | -7.9

CN1CCCC1
Settings | solvation free energy, 298 K [kcal/mol]
in CCCCCCCCO | -4.97

NC(=O)c1ccccc1
Settings | solvation free energy, 298 K [kcal/mol]
in O | -11

COc1c(O)c(OC)c(Cl)c(C=O)c1Cl
Settings | solvation free energy, 298 K [kcal/mol]
in O | -8.68

C1COCCOCCOCCOCCOCCO1
Settings | solvation free energy, 298 K [kcal/mol]
in Cc1cccc(C)c1 | -12.9
in O | -15.6

CC(=O)OC(C)(C)C1CC=C(C)CC1 (configuration not stated)
Settings | solvation free energy, 298 K [kcal/mol]
in O | -3.41

COP(=O)(OC)OC
Settings | solvation free energy, 298 K [kcal/mol]
in O | -8.7

COc1ccccc1N
Settings | solvation free energy, 298 K [kcal/mol]
in O | -6.12

CCc1cccc(CC)c1N(COC)C(=O)CCl
Settings | solvation free energy, 298 K [kcal/mol]
in O | -8.21

CCc1ccncc1
Settings | solvation free energy, 298 K [kcal/mol]
in O | -4.73

CCCc1ccc(O)cc1
Settings | solvation free energy, 298 K [kcal/mol]
in O | -5.21

CC(C)Cl
Settings | solvation free energy, 298 K [kcal/mol]
in C=CCCCCCCCCCCCCCC | -2.78
in O | -0.23

CCCCCCCC
Settings | solvation free energy, 298 K [kcal/mol]
in Brc1ccccc1 | -5.05
in C1CCCCC1 | -5.54
in C1CCOC1 | -5.32
in C1COCCO1 | -4.49
in C=CCCCC | -5.39
in C=CCCCCCC | -5.28
in C=CCCCCCCCC | -5.23
in CC1COC(=O)O1 | -3.01
in CC#N | -3.63
in CC(=O)N(C)C | -3.96
in CC(=O)O | -3.96
in CC(=O)c1ccccc1 | -4.29
in CC(C)(C)O | -4.62
in CC(C)=O | -4.41
in CC(C)CC(C)(C)C | -5.32
in CC(C)CCCC(C)CCCC(C)CCCCC(C)CCCC(C)CCCC(C)C | -4.83
in CC(C)CCO | -4.61
in CC(C)O | -4.4
in CC(C)OC(C)C | -5.29
in CC(Cl)Cl | -4.66
in CC(O)CO | -2.84
in CCBr | -5.39
in CCC(C)(C)OC | -5.28
in CCC(C)=O | -4.69
in CCCC#N | -4.33
in CCCC(=O)OCC | -4.94
in CCCC(C)=O | -4.81
in CCCCC | -5.43
in CCCCC(CC)COC(=O)CCCCC(=O)OCC(CC)CCCC | -4.69
in CCCCC(CC)COC(=O)c1ccccc1C(=O)OCC(CC)CCCC | -4.43
in CCCCCC | -5.42
in CCCCCC(C)=O | -4.83
in CCCCCCC | -5.37
in CCCCCCCCC | -5.23
in CCCCCCCCC=CCCCCCCCC(=O)OCC(COC(=O)CCCCCCCC=CCCCCCCCC)OC(=O)CCCCCCCC=CCCCCCCCC | -4.75
in CCCCCCCCCC | -5.2
in CCCCCCCCCCCC | -5.11
in CCCCCCCCCCCCCCCC | -5.01
in CCCCCCCCCCCCO | -4.65
in CCCCCCCCCCO | -4.53
in CCCCCCCCO | -4.62
in CCCCCCOC(C)=O | -4.92
in CCCCCO | -4.62
in CCCCO | -4.49
in CCCCOC(=O)c1ccccc1C(=O)OCCCC | -4.5
in CCCCOC(C)=O | -4.85
in CCCCOCCCC | -5.25
in CCCO | -4.41
in CCN1CCCC1=O | -4.09
in CCN(CC)C(C)=O | -4.35
in CCN(CC)CC | -5.5
in CCNC(C)=O | -4.09
in CCNC=O | -3.79
in CCO | -4.3
in CCOC(=O)c1ccccc1C(=O)OCC | -3.95
in CCOC(C)=O | -4.71
in CCOCC | -5.41
in CCOCCOCCOCC | -4.65
in CCOc1ccccc1 | -4.77
in CN1CCCC1=O | -3.77
in CN1CCCCC1=O | -4.02
in CN(C)C=O | -3.75
in CN(C)P(=O)(N(C)C)N(C)C | -4.26
in CNC=O | -3.34
in CO | -3.86
in COC(C)=O | -4.49
in COCCO | -3.76
in COCCOCCOCCOCCOC | -4.01
in COc1ccccc1 | -4.7
in CS(C)=O | -2.79
in Cc1ccc(C)cc1 | -5.28
in Cc1cccc(C)n1 | -4.92
in Cc1cccc(O)c1 | -4.08
in Cc1ccccc1 | -5.29
in Cc1ccccn1 | -4.78
in ClC(Cl)(Cl)Cl | -5.45
in ClC(Cl)Cl | -5.32
in ClCCCl | -4.71
in ClCCl | -5.08
in Clc1ccccc1 | -5.21
in FC(F)(F)C(F)(F)C(F)(F)C(F)(F)C(F)(F)C(F)(F)C(F)(F)C(F)(F)F | -3.45
in FC(F)(F)C(F)(F)C(F)(F)C(F)(F)C(F)(F)C(F)(F)F | -3.52
in Fc1c(F)c(F)c(F)c(F)c1F | -4.83
in Fc1ccccc1 | -5.11
in ICI | -3.3
in Ic1ccccc1 | -4.74
in N#CCCCCC#N | -2.96
in NC=O | -1.27
in NCCO | -1.74
in Nc1ccccc1 | -3.52
in O=C1CCCCC1 | -4.63
in O=C1CCCO1 | -3.22
in O=CN1CCOCC1 | -3.04
in OCCCCCO | -3.06
in OCCCCO | -2.87
in OCCCO | -2.59
in OCCOCCO | -2.35
in OCCOCCOCCOCCO | -2.71
in OCc1ccccc1 | -3.81
in S=C=S | -5.53
in c1ccc2ncccc2c1 | -4.22
in c1ccc(COCc2ccccc2)cc1 | -4.28
in c1ccccc1 | -5.25
in c1ccncc1 | -4.49

Clc1ccc(Cl)c(Cl)c1
Settings | solvation free energy, 298 K [kcal/mol]
in CCCCCC | -6.98
in O | -1.16
